Reference: US20150299188A1, “HETEROCYCLIC COMPOUND” (priority 2012, published 2015)

Tested on: FLAP (5-lipoxygenase activating protein)
Assay: In vitro binding test: displacement of [3H]-7-chloro-3-(5-((3-fluoropyridin-2-yl)methoxy)-2-methylphenyl)-3,4-dihydroquinazolin-2(1H)-one from Sf9 microsome fractions
Parameters: species or system human and mouse
Conditions: Sf9 microsome fractions expressing FLAP; 100% = radioligand binding with 10 μM sodium 3-(3-(tert-butylsulfanyl)-1-(4-chlorobenzyl)-5-isopropyl-1H-indol-2-yl)-2,2-dimethylpropanoate, 0% = DMSO; test compound concentration not given
Method in brief: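 Sf9 microsomes expressing human or mouse FLAP (2 μg/mL) preincubated with compound 10 min at room temperature, then 120 nM tritiated quinazolinone ligand added for 60 min; buffer 100 mM Tris-HCl pH 7.5 with NaCl, EDTA, DTT, glycerol, Tween20. Bound ligand filtered and counted by scintillation; 10 μM indole propanoate defines 100% inhibition, DMSO 0%.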

SMILES	inhibitory rate (%)
Cc1ccc(OCc2ncccc2Cl)cc1N1Cc2ccccc2NC1=O [Example 187, 3-(5-((3-chloropyridin-2-yl)methoxy)-2-methylphenyl)-3,4-dihydroquinazolin-2(1H)-one]	103
COC(=O)c1ccc(OCc2c(F)cccc2F)cc1N1Cc2ccccc2NC1=O [Example 188, methyl 4-((2,6-difluorobenzyl)oxy)-2-(2-oxo-1,4-dihydroquinazolin-3(2H)-yl)benzoate]	83
CC(C)(O)CNC(=O)c1ccc(OCc2c(F)cccc2F)cc1N1Cc2ccccc2NC1=O [Example 190, 4-((2,6-difluorobenzyl)oxy)-N-(2-hydroxy-2-methylpropyl)-2-(2-oxo-1,4-dihydroquinazolin-3(2H)-yl)benzamide]	55
O=C(NCc1ccccn1)c1ccc(OCc2c(F)cccc2F)cc1N1Cc2ccccc2NC1=O [Example 192, 4-((2,6-difluorobenzyl)oxy)-2-(2-oxo-1,4-dihydroquinazolin-3(2H)-yl)-N-(pyridin-2-ylmethyl)benzamide]	51
COC(=O)c1ccc2c(c1)NC(=O)N(c1cc(OCc3cc(F)ccc3F)ccc1C)C2 [Example 199, methyl 3-(5-((2,5-difluorobenzyl)oxy)-2-methylphenyl)-2-oxo-1,2,3,4-tetrahydroquinazoline-7-carboxylate]	60
COC(=O)c1ccc2c(c1)NC(=O)N(c1cc(OCc3ccc(F)cc3F)ccc1C)C2 [Example 200, methyl 3-(5-((2,4-difluorobenzyl)oxy)-2-methylphenyl)-2-oxo-1,2,3,4-tetrahydroquinazoline-7-carboxylate]	100
Cc1ccc(OCc2ccc(F)cc2F)cc1N1Cc2ccc(C(C)(C)O)cc2NC1=O [Example 201, 3-(5-((2,4-difluorobenzyl)oxy)-2-methylphenyl)-7-(2-hydroxypropan-2-yl)-3,4-dihydroquinazolin-2(1H)-one]	104
Cc1ccc(OCc2c(F)cccc2F)cc1N1Cc2c(cccc2C(C)(C)O)NC1=O [Example 202, 3-(5-((2,6-difluorobenzyl)oxy)-2-methylphenyl)-5-(2-hydroxypropan-2-yl)-3,4-dihydroquinazolin-2(1H)-one]	72
Cc1ccc(OCc2cccc(F)c2F)cc1N1Cc2ccc(C(C)(C)O)cc2NC1=O [Example 203, 3-(5-((2,3-difluorobenzyl)oxy)-2-methylphenyl)-7-(2-hydroxypropan-2-yl)-3,4-dihydroquinazolin-2(1H)-one]	81
Cc1ccc(OCc2c(F)cccc2F)cc1N1Cc2ccc(C(=O)N3CCCC(O)C3)cc2NC1=O (stereo not shown) [Example 205, 3-(5-((2,6-difluorobenzyl)oxy)-2-methylphenyl)-7-((3-hydroxypiperidin-1-yl)carbonyl)-3,4-dihydroquinazolin-2(1H)-one]	77
COC(=O)c1ccc2c(c1)NC(=O)N(c1cc(OCc3csc(C)n3)ccc1C)C2 [Example 211, methyl 3-(2-methyl-5-((2-methyl-1,3-thiazol-4-yl)methoxy)phenyl)-2-oxo-1,2,3,4-tetrahydroquinazoline-7-carboxylate]	86
O=C1Nc2ccccc2CN1c1cc(OCc2ncccc2F)ccc1Br [Example 212, 3-(2-bromo-5-((3-fluoropyridin-2-yl)methoxy)phenyl)-3,4-dihydroquinazolin-2(1H)-one]	113
O=C1Nc2ccccc2CN1c1cc(OCc2ncccc2F)ccc1C1CC1 [Example 213, 3-(2-cyclopropyl-5-((3-fluoropyridin-2-yl)methoxy)phenyl)-3,4-dihydroquinazolin-2(1H)-one]	114
O=C1Nc2ccccc2CN1c1cc(OCc2ncccc2F)ccc1C(F)(F)F [Example 214, 3-(5-((3-fluoropyridin-2-yl)methoxy)-2-(trifluoromethyl)phenyl)-3,4-dihydroquinazolin-2(1H)-one]	110
Cc1ccc(OC(C)c2ncccc2F)cc1N1Cc2ccccc2NC1=O (stereo not shown) [Example 215, 3-(5-(1-(3-fluoropyridin-2-yl)ethoxy)-2-methylphenyl)-3,4-dihydroquinazolin-2(1H)-one]	79
COC(=O)c1ccc2c(c1)NC(=O)N(c1cc(OCc3ncccc3F)ccc1C)C2 [Example 216, methyl 3-(5-((3-fluoropyridin-2-yl)methoxy)-2-methylphenyl)-2-oxo-1,2,3,4-tetrahydroquinazoline-7-carboxylate]	104
Cc1ccc(OCc2c(F)cccc2F)cc1N1Cc2cccc(C(C)(C)O)c2NC1=O [Example 217, 3-(5-((2,6-difluorobenzyl)oxy)-2-methylphenyl)-8-(2-hydroxypropan-2-yl)-3,4-dihydroquinazolin-2(1H)-one]	87
COC(=O)c1ccc(OCc2ncccc2F)cc1N1Cc2ccccc2NC1=O [Example 219, methyl 4-((3-fluoropyridin-2-yl)methoxy)-2-(2-oxo-1,4-dihydroquinazolin-3(2H)-yl)benzoate]	106
CCc1ccc(OCc2ncccc2F)cc1N1Cc2ccccc2NC1=O [Example 220, 3-(2-ethyl-5-((3-fluoropyridin-2-yl)methoxy)phenyl)-3,4-dihydroquinazolin-2(1H)-one]	106
O=C(NC1CC1)c1ccc(OCc2ncccc2F)cc1N1Cc2ccccc2NC1=O [Example 221, N-cyclopropyl-4-((3-fluoropyridin-2-yl)methoxy)-2-(2-oxo-1,4-dihydroquinazolin-3(2H)-yl)benzamide]	72

More lines, now with the values ahead:

inhibitory rate (%)	SMILES
97	COCc1ccc2c(c1)NC(=O)N(c1cc(OCc3c(F)cccc3F)ccc1C)C2 [Example 193, 3-(5-((2,6-difluorobenzyl)oxy)-2-methylphenyl)-7-(methoxymethyl)-3,4-dihydroquinazolin-2(1H)-one]
71	Cc1ccc(OCc2c(F)cccc2F)cc1N1Cc2cccc(CO)c2NC1=O [Example 194, 3-(5-((2,6-difluorobenzyl)oxy)-2-methylphenyl)-8-(hydroxymethyl)-3,4-dihydroquinazolin-2(1H)-one]
97	Cc1ccc(OCc2c(F)cccc2F)cc1N1Cc2c(CO)cccc2NC1=O [Example 195, 3-(5-((2,6-difluorobenzyl)oxy)-2-methylphenyl)-5-(hydroxymethyl)-3,4-dihydroquinazolin-2(1H)-one]
97	Cc1ccc(OCc2c(F)cccc2F)cc1N1Cc2ccc(C(N)=O)cc2NC1=O [Example 196, 3-(5-((2,6-difluorobenzyl)oxy)-2-methylphenyl)-2-oxo-1,2,3,4-tetrahydroquinazoline-7-carboxamide]
101	Cc1ccc(OCc2c(F)cccc2F)cc1N1Cc2ccc(C(=O)NCCO)cc2NC1=O [Example 197, 3-(5-((2,6-difluorobenzyl)oxy)-2-methylphenyl)-N-(2-hydroxyethyl)-2-oxo-1,2,3,4-tetrahydroquinazoline-7-carboxamide]
94	COC(=O)c1ccc2c(c1)NC(=O)N(c1cc(OCc3cccc(F)c3F)ccc1C)C2 [Example 198, methyl 3-(5-((2,3-difluorobenzyl)oxy)-2-methylphenyl)-2-oxo-1,2,3,4-tetrahydroquinazoline-7-carboxylate]
103	Cc1ccc(OCc2c(F)cccc2F)cc1N1Cc2ccc(C#N)cc2NC1=O [Example 204, 3-(5-((2,6-difluorobenzyl)oxy)-2-methylphenyl)-2-oxo-1,2,3,4-tetrahydroquinazoline-7-carbonitrile]
81	Cc1ccc(OCc2c(F)cccc2F)cc1N1Cc2ccc(CN)cc2NC1=O [Example 206, 7-(aminomethyl)-3-(5-((2,6-difluorobenzyl)oxy)-2-methylphenyl)-3,4-dihydroquinazolin-2(1H)-one]
87	Cc1ccc(OCc2c(F)cccc2F)cc1N1Cc2ccc(C(=O)NC(C)(C)C(=O)O)cc2NC1=O [Example 207, N-((3-(5-((2,6-difluorobenzyl)oxy)-2-methylphenyl)-2-oxo-1,2,3,4-tetrahydroquinazolin-7-yl)carbonyl)-2-methylalanine]
96	Cc1ccc(OCc2c(F)cccc2F)cc1N1Cc2ccc(-c3noc(=O)[nH]3)cc2NC1=O [Example 208, 3-(5-((2,6-difluorobenzyl)oxy)-2-methylphenyl)-7-(5-oxo-4,5-dihydro-1,2,4-oxadiazol-3-yl)-3,4-dihydroquinazolin-2(1H)-one]
102	Cc1ccc(OCc2c(F)cccc2F)cc1N1Cc2ccc(C(=O)NS(C)(=O)=O)cc2NC1=O [Example 209, 3-(5-((2,6-difluorobenzyl)oxy)-2-methylphenyl)-N-(methylsulfonyl)-2-oxo-1,2,3,4-tetrahydroquinazoline-7-carboxamide]
96	Cc1ccc(OCc2c(F)cccc2F)cc1N1Cc2ccc(C3=NC(C)(C)C(=O)O3)cc2NC1=O [Example 210, 3-(5-((2,6-difluorobenzyl)oxy)-2-methylphenyl)-7-(4,4-dimethyl-5-oxo-4,5-dihydro-1,3-oxazol-2-yl)-3,4-dihydroquinazolin-2(1H)-one]
95	O=C1Nc2cc(CO)ccc2CN1c1cc(OCc2c(F)cccc2F)ccc1Cl [Example 218, 3-(2-chloro-5-((2,6-difluorobenzyl)oxy)phenyl)-7-(hydroxymethyl)-3,4-dihydroquinazolin-2(1H)-one]
103	CC(C)(O)c1ccc2c(c1)NC(=O)N(c1cc(OCc3c(F)cccc3F)ccc1Cl)C2 [Example 222, 3-(2-chloro-5-((2,6-difluorobenzyl)oxy)phenyl)-7-(2-hydroxypropan-2-yl)-3,4-dihydroquinazolin-2(1H)-one]
